Columns and labels:
in vivo = conditions: male, Swiss Albino, mouse, po, 10 mg/kg
[1] = male, Swiss Albino, mouse, in vivo, 10 mg/kg

SMILES: CC(C)(C)n1nc(Oc2cccc(Cl)c2)c2c(N)ncnc21 [Compound 2]
- bioavailability (in vivo): 25 to 30%
- %F (oral availability) [1]: 31%

Reference: paper PMC5746462 (Journal of medicinal chemistry, 2017)
